Measurements reported in patent US10670605B2, “Cysteine reactive probes and uses thereof” (The Scripps Research Institute, priority 2015, dated 2020).

What was measured:
Test in all cases: Competitive isoTOP-ABPP in situ (fragment-treated cells)
Format in all cases: cell-based
[1] = molecular target: T1, cysteines in MDA-MB-231 and Ramos cells (Homo sapiens, UniProt Q96AB3)
T1 sequence (Q96AB3 1-205): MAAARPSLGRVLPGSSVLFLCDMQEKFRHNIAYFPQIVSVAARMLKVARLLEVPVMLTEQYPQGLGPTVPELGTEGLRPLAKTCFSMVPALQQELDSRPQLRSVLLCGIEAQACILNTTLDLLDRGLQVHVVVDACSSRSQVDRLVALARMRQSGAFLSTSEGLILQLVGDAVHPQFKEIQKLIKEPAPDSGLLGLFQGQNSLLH

[2] = molecular target: T2, cysteines in MDA-MB-231 and Ramos cells (Homo sapiens, UniProt Q9HCC0)
T2 sequence (Q9HCC0 23-563): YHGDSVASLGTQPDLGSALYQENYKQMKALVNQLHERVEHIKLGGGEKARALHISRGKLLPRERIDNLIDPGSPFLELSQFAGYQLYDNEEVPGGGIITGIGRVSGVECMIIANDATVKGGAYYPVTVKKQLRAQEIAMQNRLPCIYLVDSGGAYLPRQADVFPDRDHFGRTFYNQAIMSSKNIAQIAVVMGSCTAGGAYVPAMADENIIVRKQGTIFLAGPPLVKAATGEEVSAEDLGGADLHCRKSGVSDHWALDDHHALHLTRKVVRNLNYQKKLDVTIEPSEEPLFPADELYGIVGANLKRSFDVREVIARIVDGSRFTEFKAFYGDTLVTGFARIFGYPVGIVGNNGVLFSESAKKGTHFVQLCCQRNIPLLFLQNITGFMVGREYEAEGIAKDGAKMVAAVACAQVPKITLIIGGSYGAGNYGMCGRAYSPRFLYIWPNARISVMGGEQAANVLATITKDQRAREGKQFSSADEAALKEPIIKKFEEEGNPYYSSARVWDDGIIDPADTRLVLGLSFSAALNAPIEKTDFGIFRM

[3] = molecular target: T3, cysteines in MDA-MB-231 and Ramos cells (Homo sapiens, UniProt Q9BTA9)
T3 sequence (Q9BTA9 1-647): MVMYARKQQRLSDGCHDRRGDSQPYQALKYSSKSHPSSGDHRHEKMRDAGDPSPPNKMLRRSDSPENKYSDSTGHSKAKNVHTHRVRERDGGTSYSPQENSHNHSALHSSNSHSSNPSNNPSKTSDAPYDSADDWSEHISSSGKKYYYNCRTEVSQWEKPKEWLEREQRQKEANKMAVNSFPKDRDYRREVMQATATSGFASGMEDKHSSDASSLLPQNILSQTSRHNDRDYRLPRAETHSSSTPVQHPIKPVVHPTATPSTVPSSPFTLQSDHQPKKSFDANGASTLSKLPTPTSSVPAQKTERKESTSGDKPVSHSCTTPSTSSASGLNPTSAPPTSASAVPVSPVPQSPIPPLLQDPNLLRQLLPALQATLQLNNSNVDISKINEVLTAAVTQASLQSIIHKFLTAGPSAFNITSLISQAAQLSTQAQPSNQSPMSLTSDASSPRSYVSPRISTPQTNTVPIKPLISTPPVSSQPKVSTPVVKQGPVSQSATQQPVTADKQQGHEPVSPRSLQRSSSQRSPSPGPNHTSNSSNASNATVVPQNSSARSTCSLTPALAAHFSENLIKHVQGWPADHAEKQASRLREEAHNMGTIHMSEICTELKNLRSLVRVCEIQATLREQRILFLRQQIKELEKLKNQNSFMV

[4] = molecular target: T4, cysteines in MDA-MB-231 and Ramos cells (Homo sapiens, UniProt P24752)
T4 sequence (P24752 34-427): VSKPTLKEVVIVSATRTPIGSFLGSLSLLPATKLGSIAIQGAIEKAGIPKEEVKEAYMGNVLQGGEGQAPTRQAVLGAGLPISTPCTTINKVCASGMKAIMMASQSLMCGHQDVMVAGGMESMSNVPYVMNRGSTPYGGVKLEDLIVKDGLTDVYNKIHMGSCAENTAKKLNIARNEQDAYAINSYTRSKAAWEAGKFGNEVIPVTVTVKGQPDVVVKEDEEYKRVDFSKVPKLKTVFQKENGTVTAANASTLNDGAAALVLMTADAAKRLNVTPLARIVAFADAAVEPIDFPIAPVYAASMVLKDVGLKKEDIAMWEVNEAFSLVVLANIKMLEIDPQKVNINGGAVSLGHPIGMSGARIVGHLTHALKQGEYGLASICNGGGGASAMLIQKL

[5] = molecular target: cysteines in MDA-MB-231 and Ramos cells (Homo sapiens, UniProt O00299)
[6] = molecular target: T5, cysteines in MDA-MB-231 and Ramos cells (Homo sapiens, UniProt P23919)
T5 sequence (P23919 1-212): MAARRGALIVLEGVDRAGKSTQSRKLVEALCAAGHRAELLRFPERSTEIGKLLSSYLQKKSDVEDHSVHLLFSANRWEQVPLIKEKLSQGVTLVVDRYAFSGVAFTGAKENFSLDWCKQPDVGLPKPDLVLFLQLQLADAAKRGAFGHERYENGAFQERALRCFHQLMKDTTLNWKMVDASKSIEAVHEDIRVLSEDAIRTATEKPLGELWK

Question: With `COc1ccc2c(c1)CCCN2C(=O)CCl` [compound 2] as the molecule, how does the “isoTOP-ABPP reactivity Q96AB3_C114 ISOC2” value ([1]; 200 μM, insitu, 231) read?
Answer: 1.6

Question: What about the “isoTOP-ABPP reactivity Q9HCC0_C216 MCCC2” value ([2]; 200 μM, insitu, 231) of the same molecule?
Answer: 4.6

Question: And the “isoTOP-ABPP reactivity Q9BTA9_0553 WAC” value ([3]; 200 μM, insitu, 231)?
Answer: 17.6

Question: What about the “isoTOP-ABPP reactivity P24752_C119 ACAT1” value ([4]; 200 μM, insitu, 231) of the same molecule?
Answer: 2.6

Question: What about the “isoTOP-ABPP reactivity P24752_C126 ACAT1” value ([4]; 200 μM, insitu, 231) of the same molecule?
Answer: 9.1

Question: And the “isoTOP-ABPP reactivity P24752_C196 ACAT1” value ([4]; 200 μM, insitu, 231)?
Answer: 20.0

Question: What about the “isoTOP-ABPP reactivity P24752_C413 ACAT1” value ([4]; 200 μM, insitu, 231) of the same molecule?
Answer: 20.0

Question: And the “isoTOP-ABPP reactivity O00299_C24 CLIC1” value ([5]; 200 μM, insitu, 231)?
Answer: 9.5

Question: With `COc1ccc(C2CC(c3cccs3)=NN2C(=O)CCl)cc1` (stereo not shown) [compound 4] as the molecule, how does the “isoTOP-ABPP reactivity Q96AB3_C114 ISOC2” value ([1]; 100 μM in situ 231) read?
Answer: 0.8

Question: What about the “isoTOP-ABPP reactivity Q9HCC0_C216 MCCC2” value ([2]; 100 μM in situ 231) of the same molecule?
Answer: 5.9

Question: And the “isoTOP-ABPP reactivity Q9BTA9_0553 WAC” value ([3]; 100 μM in situ 231)?
Answer: 17.8

Question: What about the “isoTOP-ABPP reactivity P23919_C163 DTYMK” value ([6]; 100 μM in situ 231) of the same molecule?
Answer: 0.4

Question: And the “isoTOP-ABPP reactivity P24752_C119 ACAT1” value ([4]; 100 μM in situ 231)?
Answer: 3.0

Question: What about the “isoTOP-ABPP reactivity P24752_C126 ACAT1” value ([4]; 100 μM in situ 231) of the same molecule?
Answer: 2.8

Question: What about the “isoTOP-ABPP reactivity P24752_C196 ACAT1” value ([4]; 100 μM in situ 231) of the same molecule?
Answer: 3.5

Question: What about the “isoTOP-ABPP reactivity P24752_C413 ACAT1” value ([4]; 100 μM in situ 231) of the same molecule?
Answer: 4.5

Question: What about the “isoTOP-ABPP reactivity O00299_C24 CLIC1” value ([5]; 100 μM in situ 231) of the same molecule?
Answer: 20.0

Question: `COc1cc2c(cc1OC)CN(C(=O)CCl)CC2` [compound 8] was tested. Which “isoTOP-ABPP reactivity Q96AB3_C114 ISOC2” value ([1]; 200 μM, insitu, 231) did it give?
Answer: 4.7

Question: What about the “isoTOP-ABPP reactivity Q9HCC0_C216 MCCC2” value ([2]; 200 μM, insitu, 231) of the same molecule?
Answer: 3.9

Question: And the “isoTOP-ABPP reactivity Q9BTA9_0553 WAC” value ([3]; 200 μM, insitu, 231)?
Answer: 9.6

Question: What about the “isoTOP-ABPP reactivity P23919_C117 DTYMK” value ([6]; 200 μM, insitu, 231) of the same molecule?
Answer: 0.4

Question: And the “isoTOP-ABPP reactivity P23919_C163 DTYMK” value ([6]; 200 μM, insitu, 231)?
Answer: 0.6

Question: And the “isoTOP-ABPP reactivity P24752_C119 ACAT1” value ([4]; 200 μM, insitu, 231)?
Answer: 5.5

Question: And the “isoTOP-ABPP reactivity P24752_C126 ACAT1” value ([4]; 200 μM, insitu, 231)?
Answer: 4.5

Question: And the “isoTOP-ABPP reactivity P24752_C413 ACAT1” value ([4]; 200 μM, insitu, 231)?
Answer: 20.0

Question: What about the “isoTOP-ABPP reactivity O00299_C24 CLIC1” value ([5]; 200 μM, insitu, 231) of the same molecule?
Answer: 10.3

Question: `O=C(CCl)N1CCC(Cc2ccccc2)CC1` [compound 9] was tested. Which “isoTOP-ABPP reactivity P23919_C117 DTYMK” value ([6]; 200 μM, insitu, 231) did it give?
Answer: 7.3

Question: And the “isoTOP-ABPP reactivity P24752_C119 ACAT1” value ([4]; 200 μM, insitu, 231)?
Answer: 3.8

Question: And the “isoTOP-ABPP reactivity P24752_C126 ACAT1” value ([4]; 200 μM, insitu, 231)?
Answer: 14.1

Question: And the “isoTOP-ABPP reactivity P24752_C196 ACAT1” value ([4]; 200 μM, insitu, 231)?
Answer: 5.8

Question: What about the “isoTOP-ABPP reactivity P24752_C413 ACAT1” value ([4]; 200 μM, insitu, 231) of the same molecule?
Answer: 19.5

Question: And the “isoTOP-ABPP reactivity O00299_C24 CLIC1” value ([5]; 200 μM, insitu, 231)?
Answer: 3.0

Question: `O=C(CCl)N1CCN(S(=O)(=O)c2ccccc2F)CC1` [compound 10] was tested. Which “isoTOP-ABPP ratio Q96AB3_C114” value ([1]; 200 μM, insitu, 231) did it give?
Answer: 20.0

Question: And the “isoTOP-ABPP ratio Q9HCC0_C216” value ([2]; 200 μM, insitu, 231)?
Answer: 2.3

Question: What about the “isoTOP-ABPP ratio Q9BTA9_C553” value ([3]; 200 μM, insitu, 231) of the same molecule?
Answer: 20.0

Question: And the “isoTOP-ABPP ratio, cysteine P23919_C117” value ([6]; 200 μM, insitu, 231)?
Answer: 0.4

Question: And the “isoTOP-ABPP ratio P24752_C119” value ([4]; 200 μM, insitu, 231)?
Answer: 4.5

Question: What about the “isoTOP-ABPP ratio P24752_C413” value ([4]; 200 μM, insitu, 231) of the same molecule?
Answer: 7.8

Question: And the “isoTOP-ABPP ratio, P24752_C126” value ([4]; 200 μM, insitu, 231)?
Answer: 5.9

Question: And the “isoTOP-ABPP ratio, P24752_C196” value ([4]; 200 μM, insitu, 231)?
Answer: 5.1

Question: What about the “isoTOP-ABPP ratio P24752_C119” value ([4]; 200 μM, insitu, ramos) of the same molecule?
Answer: 1.5

Question: What about the “isoTOP-ABPP ratio P24752_C413” value ([4]; 200 μM, insitu, ramos) of the same molecule?
Answer: 2.2

Question: What about the “isoTOP-ABPP ratio, P24752_C196” value ([4]; 200 μM, insitu, ramos) of the same molecule?
Answer: 2.3

Question: And the “isoTOP-ABPP ratio O00299_C24” value ([5]; 200 μM, insitu, 231)?
Answer: 5.0

Question: Which results are given for `Cn1cc(S(=O)(=O)N2CCOCC2)cc1C(=O)NC(=O)CCl` [compound 11]?
Answer: isoTOP-ABPP ratio Q96AB3_C114 ([1]; 100 μM in situ 231): 0.9; isoTOP-ABPP ratio Q9HCC0_C216 ([2]; 100 μM in situ 231): 1.9; isoTOP-ABPP ratio Q9BTA9_C553 ([3]; 100 μM in situ 231): 1.7; isoTOP-ABPP ratio, cysteine P23919_C163 ([6]; 100 μM in situ 231): 0.2; isoTOP-ABPP ratio P24752_C119 ([4]; 100 μM in situ 231): 1.2; isoTOP-ABPP ratio P24752_C413 ([4]; 100 μM in situ 231): 1.2; isoTOP-ABPP ratio, P24752_C126 ([4]; 100 μM in situ 231): 1.2; isoTOP-ABPP ratio, P24752_C196 ([4]; 100 μM in situ 231): 1.1; isoTOP-ABPP ratio O00299_C24 ([5]; 100 μM in situ 231): 2.5

Question: With `O=C(CCl)NC(=O)NC12CC3CC(CC(C3)C1)C2` [compound 12] as the molecule, how does the “isoTOP-ABPP ratio Q96AB3_C114” value ([1]; 200 μM, insitu, 231) read?
Answer: 1.6

Question: What about the “isoTOP-ABPP ratio Q9HCC0_C216” value ([2]; 200 μM, insitu, 231) of the same molecule?
Answer: 20.0

Question: What about the “isoTOP-ABPP ratio, cysteine P23919_C117” value ([6]; 200 μM, insitu, 231) of the same molecule?
Answer: 0.2

Question: What about the “isoTOP-ABPP ratio P24752_C119” value ([4]; 200 μM, insitu, 231) of the same molecule?
Answer: 4.1

Question: And the “isoTOP-ABPP ratio P24752_C413” value ([4]; 200 μM, insitu, 231)?
Answer: 9.9

Question: What about the “isoTOP-ABPP ratio, P24752_C126” value ([4]; 200 μM, insitu, 231) of the same molecule?
Answer: 5.8

Question: And the “isoTOP-ABPP ratio, P24752_C196” value ([4]; 200 μM, insitu, 231)?
Answer: 4.6

Question: What about the “isoTOP-ABPP ratio O00299_C24” value ([5]; 200 μM, insitu, 231) of the same molecule?
Answer: 20.0
